Assay results reported in ChEMBL document CHEMBL1201862, “PubChem BioAssay data set” (2004).
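Compound exposure: 48 hours, 5 concentrations, 96-well plates. GI50: concentration for 50% inhibition of growth.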 Activity calls are given as the source filed them. Cut-off read from the data, not from the text of the source: active = GI50 up to about 1.1 µM and inactive = higher.

Tests used:
Assay in all cases: NCI-60 cell line screen, 48 h
[1] = tested on: HL-60
[2] = tested on: KM12
[3] = tested on: SN12C
[4] = tested on: IGROV-1
[5] = tested on: UACC-257
[6] = tested on: OVCAR-5
[7] = tested on: HCT-15
[8] = tested on: HT-29
[9] = tested on: SR
[10] = tested on: A498
[11] = tested on: ACHN
[12] = tested on: HCT-116
[13] = tested on: LOX IMVI
[14] = tested on: OVCAR-4
[15] = tested on: PC-3
[16] = tested on: SW-620
[17] = tested on: EKVX
[18] = tested on: A549
[19] = tested on: NCI-H23
[20] = tested on: BT-549
[21] = tested on: K562
[22] = tested on: SK-MEL-28
[23] = tested on: M14
[24] = tested on: Hs-578T
[25] = tested on: SF-539
[26] = tested on: DU-145
[27] = tested on: MDA-MB-435
[28] = tested on: MDA-MB-231
[29] = tested on: MDA-N
[30] = tested on: NCI-H226
[31] = tested on: COLO 205
[32] = tested on: HOP-92
[33] = tested on: RXF 393
[34] = tested on: 786-0
[35] = tested on: NCI-H522
[36] = tested on: OVCAR-3
[37] = tested on: SK-MEL-2
[38] = tested on: SNB-75
[39] = tested on: NCI-H460
[40] = tested on: T47D
[41] = tested on: CCRF-CEM
[42] = tested on: Malme-3M
[43] = tested on: UO-31
[44] = tested on: MCF7
[45] = tested on: TK-10
[46] = tested on: U-251
[47] = tested on: SK-OV-3
[48] = tested on: OVCAR-8
[49] = tested on: HOP-62
[50] = tested on: SK-MEL-5
[51] = tested on: MOLT-4
[52] = tested on: SF-295
[53] = tested on: RPMI-8226
[54] = tested on: CAKI-1
[55] = tested on: HCC 2998
[56] = tested on: SF-268
[57] = tested on: NCI/ADR-RES
[58] = tested on: UACC-62
[59] = tested on: SNB-19

Compound: CC(C)(C)OC(=O)c1ccc(NCc2cc(O)ccc2O)cc1
- GI50 [1]: 0.447 µM (active)
- GI50 [2]: 2.93 µM (inactive)
- GI50 [3]: 1.27 µM (inactive)
- GI50 [4]: 1.77 µM (inactive)
- GI50 [5]: 3.78 µM (inactive)
- GI50 [6]: 6.58 µM (inactive)
- GI50 [7]: 1.32 µM
- GI50 [8]: 13.5 µM (inactive)
- GI50 [9]: 0.916 µM (active)
- GI50 [10]: 9.68 µM (inactive)
- GI50 [11]: 1.73 µM (inactive)
- GI50 [12]: 3.49 µM (inactive)
- GI50 [13]: 3.88 µM (inactive)
- GI50 [14]: 1.75 µM (inactive)
- GI50 [15]: 1.5 µM (inactive)
- GI50 [16]: 3.36 µM (inactive)
- GI50 [17]: 2.62 µM (inactive)
- GI50 [18]: 7.4 µM (inactive)
- GI50 [19]: 4.93 µM (inactive)
- GI50 [20]: 2 µM (inactive)
- GI50 [21]: 2.03 µM (inactive)
- GI50 [22]: 2.03 µM (inactive)
- GI50 [23]: 1.94 µM (inactive)
- GI50 [24]: 1.69 µM (inactive)
- GI50 [25]: 1.22 µM (inactive)
- GI50 [26]: 7.78 µM (inactive)
- GI50 [27]: 2.96 µM (inactive)
- GI50 [28]: 2.31 µM (inactive)
- GI50 [29]: 3.31 µM (inactive)
- GI50 [30]: 2.22 µM (inactive)
- GI50 [31]: 2.08 µM (inactive)
- GI50 [32]: 1.34 µM (inactive)
- GI50 [33]: 1.36 µM (inactive)
- GI50 [34]: 2.32 µM (inactive)
- GI50 [35]: 0.24 µM (active)
- GI50 [36]: 1.04 µM (active)
- GI50 [37]: 4.34 µM (inactive)
- GI50 [38]: 3.4 µM (inactive)
- GI50 [39]: 10.7 µM (inactive)
- GI50 [40]: 1.61 µM (inactive)
- GI50 [41]: 0.363 µM (active)
- GI50 [42]: 1.85 µM (inactive)
- GI50 [43]: 1.22 µM (inactive)
- GI50 [44]: 3.61 µM (inactive)
- GI50 [45]: 2.13 µM (inactive)
- GI50 [46]: 1.95 µM (inactive)
- GI50 [47]: 6.05 µM (inactive)
- GI50 [48]: 2.13 µM (inactive)
- GI50 [49]: 8.97 µM (inactive)
- GI50 [50]: 3.65 µM (inactive)
- GI50 [51]: 1.03 µM (active)
- GI50 [52]: 7.41 µM (inactive)
- GI50 [53]: 0.617 µM (active)
- GI50 [54]: 0.676 µM (active)
- GI50 [55]: 7.36 µM (inactive)
- GI50 [56]: 3.44 µM (inactive)
- GI50 [57]: 1.73 µM (inactive)
- GI50 [58]: 7.16 µM (inactive)
- GI50 [59]: 8.07 µM (inactive)
